{"source": "patent US12077555B2", "about": "“STAT degraders and uses thereof” (Kymera Therapeutics, Inc., priority 2019, dated 2024)", "data": [{"target": "STAT3 (Homo sapiens, UniProt P40763)", "sequence (P40763 whole entry)": "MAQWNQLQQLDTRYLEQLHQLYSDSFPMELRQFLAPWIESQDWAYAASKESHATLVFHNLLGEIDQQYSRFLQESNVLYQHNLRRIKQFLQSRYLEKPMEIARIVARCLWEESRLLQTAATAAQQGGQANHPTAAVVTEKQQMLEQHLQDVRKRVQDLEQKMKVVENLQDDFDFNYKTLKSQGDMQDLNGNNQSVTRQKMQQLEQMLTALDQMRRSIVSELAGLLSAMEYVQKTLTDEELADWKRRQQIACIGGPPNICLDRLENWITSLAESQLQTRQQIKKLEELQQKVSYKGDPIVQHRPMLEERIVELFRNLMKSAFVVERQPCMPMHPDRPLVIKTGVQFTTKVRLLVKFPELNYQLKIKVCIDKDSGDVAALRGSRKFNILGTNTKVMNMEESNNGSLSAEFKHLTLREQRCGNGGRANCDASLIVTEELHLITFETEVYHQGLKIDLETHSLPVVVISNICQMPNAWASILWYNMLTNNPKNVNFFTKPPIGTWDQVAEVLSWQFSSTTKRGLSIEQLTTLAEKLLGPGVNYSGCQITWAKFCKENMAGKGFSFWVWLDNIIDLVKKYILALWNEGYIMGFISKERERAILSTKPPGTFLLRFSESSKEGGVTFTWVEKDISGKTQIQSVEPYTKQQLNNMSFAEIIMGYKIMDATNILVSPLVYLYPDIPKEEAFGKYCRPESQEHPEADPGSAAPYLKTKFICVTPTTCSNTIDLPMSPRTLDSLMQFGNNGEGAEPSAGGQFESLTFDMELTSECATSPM", "assay": "STAT3 HiBiT degradation assay in transfected A549 cells", "format": "cell-based", "design": "expressed in transfected cells; host or cells: A549", "settings": "A549, 24 h; read-out: STAT3 HiBiT A549 degradation 24 h: Average external-Abs DC50", "outline": "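Degradation read as HiBiT-tagged STAT3 luminescence (Nano-Glo lytic reagent, 10 min, room temperature) following 24 h compound treatment of transfected A549 cells at 3-fold, 10 points. Percent remaining signal computed against controls and fitted with a four-parameter logistic; DC50 reported as letter bins (A <0.01 to D >1.0 µM).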", "units": {"DC50": "µM"}, "values": [{"smiles": "Cn1c(=O)n(C2CCC(=O)NC2=O)c2ccc(CCCCCc3cc4c5c(c3)C[C@@H](C(=O)N[C@@H](CCC(N)=O)C(=O)NC(c3ccccc3)c3ccccc3)N5C(=O)[C@@H](NC(=O)c3cc5cc(C(=O)P(=O)(O)O)ccc5[nH]3)CC4)cc21", "note": "(stereo partly drawn) [Compound I-198, 2-[[(2S,11S)-2-[[(1S)-3-carbamoyl-1-(diphenylmethylcarbamoyl)propyl]carbamoyl]-6-[5-[1-(2,6-dioxopiperidin-3-yl)-3-methyl-2-oxo-1,3-benzodiazol-5-yl]pentyl]-12-oxo-1-azatricyclo[6.4.1.0^[4,13]]trideca-4(13),5,7-trien-11-yl]carbamoyl]-1H-indole-5-carbonylphosphonic acid]", "DC50": "0.1 to 1"}, {"smiles": "Cc1ncsc1-c1ccc([C@H](C)NC(=O)[C@@H]2C[C@@H](O)CN2C(=O)[C@@H](NC(=O)CCCCCc2cc(OC[C@@H](NC(=O)[C@@H]3Cc4cccc5c4N3C(=O)[C@@H](NC(=O)c3cc4cc(C(=O)P(=O)(O)O)ccc4[nH]3)CC5)C(N)=O)ccc2Cl)C(C)(C)C)cc1", "note": "[Compound I-199, diammonium 2-[[(2S,11S)-2-[[(2S)-4-carbamoyl-1-[4-chloro-3-(5-[[(2S)-1-[(2S,4R)-4-hydroxy-2-[[(1S)-1-[4-(4-methyl-1,3-thiazol-5-yl)phenyl]ethyl]carbamoyl]pyrrolidin-1-yl]-3,3-dimethyl-1-oxobutan-2-yl]carbamoyl]pentyl)phenoxy]butan-2-yl]carbamoyl]-12-oxo-1-azatricyclo[6.4.1.0^[4,13]]trideca-4(13),5,7-trien-11-yl]carbamoyl]-1H-indole-5-carbonylphosphonate]", "DC50": "0.01 to 0.1"}, {"smiles": "Cc1ncsc1-c1ccc([C@H](C)NC(=O)[C@@H]2C[C@@H](O)CN2C(=O)[C@@H](NC(=O)CCCCCc2ccc(Cl)c(OC[C@H](CCC(N)=O)NC(=O)[C@@H]3Cc4cccc5c4N3C(=O)[C@@H](NC(=O)c3cc4cc(C(=O)P(=O)(O)O)ccc4[nH]3)CC5)c2)C(C)(C)C)cc1", "note": "[Compound I-200]", "DC50": "> 1"}, {"smiles": "Cn1c(=O)n(C2CCC(=O)NC2=O)c2ccc(CC[C@H]3CC[C@@H](C(=O)N4CC[C@H]5CC[C@@H](C(=O)N[C@@H](CCC(N)=O)C(=O)NC(c6ccccc6)c6ccccc6)N5C(=O)[C@@H](NC(=O)c5cc6cc(C(=O)P(=O)(O)O)ccc6[nH]5)C4)CC3)cc21", "note": "(some centres unmarked) [Compound I-202]", "DC50": "0.01 to 0.1"}, {"smiles": "Cn1c(=O)n(C2CCC(=O)NC2=O)c2ccc(CC[C@H]3CC[C@H](C(=O)N4CC[C@H]5CC[C@@H](C(=O)N[C@@H](CCC(N)=O)C(=O)NC(c6ccccc6)c6ccccc6)N5C(=O)[C@@H](NC(=O)c5cc6cc(C(=O)P(=O)(O)O)ccc6[nH]5)C4)CC3)cc21", "note": "(stereo partly drawn) [Compound I-203, 2-[[(5S,8S,10aR)-8-[[(1S)-3-carbamoyl-1-(diphenylmethylcarbamoyl)propyl]carbamoyl]-6-oxo-3-[(1r,4r)-4-[2-[1-(2,6-dioxopiperidin-3-yl)-3-methyl-2-oxo-1,3-benzodiazol-5-yl]ethyl]cyclohexanecarbonyl]-octahydropyrrolo[1,2-a][1,5]diazocin-5-yl]carbamoyl]-1H-indole-5-carbonylphosphonic acid]", "DC50": "0.01 to 0.1"}, {"smiles": "Cc1ncsc1-c1ccc([C@H](C)NC(=O)[C@@H]2C[C@@H](O)CN2C(=O)[C@@H](NC(=O)CCCCCc2cc(Cl)cc(OC[C@@H](NC(=O)[C@@H]3Cc4cccc5c4N3C(=O)[C@@H](NC(=O)c3cc4cc(C(=O)P(=O)(O)O)ccc4[nH]3)CC5)C(N)=O)c2)C(C)(C)C)cc1", "note": "[Compound I-204, 2-[[(2S,11S)-2-[[(2S)-4-carbamoyl-1-[3-chloro-5-(5-[[(2S)-1-[(2S,4R)-4-hydroxy-2-[[(1S)-1-[4-(4-methyl-1,3-thiazol-5-yl)phenyl]ethyl]carbamoyl]prrolidin-1-yl]-3,3-dimethyl-1-oxobutan-2-yl]carbamoyl]pentyl)phenoxy]butan-2-yl]carbamoyl]-12-oxo-1-azatricyclo[6.4.1.0^[4,13]]trideca-4(13),5,7-trien-11-yl]carbamoyl]-1H-indole-5-carbonylphosphonic acid]", "DC50": "0.01 to 0.1"}, {"smiles": "Cc1ncsc1-c1ccc([C@H](C)NC(=O)[C@@H]2C[C@@H](O)CN2C(=O)[C@@H](NC(=O)CCCCCc2cccc(OC[C@@H](NC(=O)[C@@H]3Cc4cccc5c4N3C(=O)[C@@H](NC(=O)c3cc4cc(C(=O)P(=O)(O)O)ccc4[nH]3)CC5)C(N)=O)c2C)C(C)(C)C)cc1", "note": "[Compound I-205, diammonium 2-[[(2S,11S)-2-[[(2S)-4-carbamoyl-1-[3-[5-[[(2S)-1-[(2S,4R)-4-hydroxy-2-[[(1S)-1-[4-[4-methyl-1,3-thiazol-5-yl)phenyl]ethyl]carbamoyl]pyrrolidin-1-yl]-3,3-dimethyl-1-oxobutan-2-yl]carbamoyl]pentyl)-2-methylphenoxy]butan-2-yl]carbamoyl]-12-oxo-1-azatricyclo[6.4.1.0^[4,13]]trideca-4(13),5,7-trien-11-yl]carbamoyl]-1H-indole-5-carbonylphosphonate]", "DC50": "0.01 to 0.1"}, {"smiles": "Cc1ncsc1-c1ccc(C2(NC(=O)[C@@H]3C[C@@H](O)CN3C(=O)[C@@H](NC(=O)CCCCCc3cccc(OC[C@H](CCC(N)=O)NC(=O)[C@@H]4Cc5cccc6c5N4C(=O)[C@@H](NC(=O)c4cc5cc(C(=O)P(=O)(O)O)ccc5[nH]4)CC6)c3)C(C)(C)C)CC2)cc1", "note": "[Compound I-206, diammonium 2-[[(2S,11S)-2-[[(2S)-4-carbamoyl-1-[3-(5-[[(2S)-1-[(2S,4R)-4-hydroxy-2-([1-[4-[4-methyl-1,3-thiazo1-5-yl)phenyl]cyclopropyl]carbamoyl)pyrrolidin-1-yl]-3,3-dimethyl-1-oxobutan-2-yl]carbamoyl]pentyl)phenoxy]butan-2-yl]carbamoyl]-12-oxo-1-azatricyclo[6.4.1.0^[4,13]]trideca-4(13),5,7-trien-11-yl]carbamoyl]-1H-indole-5-carbonylphosphonate]", "DC50": "0.01 to 0.1"}, {"smiles": "Cc1ncsc1-c1ccc([C@H](C)NC(=O)[C@@H]2C[C@@H](O)CN2C(=O)[C@@H](NC(=O)CCCCCc2ccc(F)c(OC[C@H](CCC(N)=O)NC(=O)[C@@H]3Cc4cccc5c4N3C(=O)[C@@H](NC(=O)c3cc4cc(C(=O)P(=O)(O)O)ccc4[nH]3)CC5)c2)C(C)(C)C)cc1", "note": "[Compound I-207]", "DC50": "0.1 to 1"}, {"smiles": "Cn1c(=O)n(C2CCC(=O)NC2=O)c2ccc(C3CC(CCCCC(=O)N4CC[C@H]5CC[C@@H](C(=O)N[C@@H](CCC(N)=O)C(=O)NC(c6ccccc6)c6ccccc6)N5C(=O)[C@@H](NC(=O)c5cc6cc(C(=O)P(=O)(O)O)ccc6[nH]5)C4)C3)cc21", "note": "(stereo partly drawn) [Compound I-208, 2-[[(5S,8S,10aR)-8-[[(1S)-3-carbamoyl-1-(diphenylmethylcarbamoyl)propyl]carbamoyl]-3-(5-[3-[1-(2,6-dioxopiperidin-3-yl)-3-methyl-2-oxo-1,3-benzodiazol-5-yl]cyclobutyl]pentanoyl)-6-oxo-octahydropyrrolo[1,2-a][1,5]diazocin-5-yl]carbamoyl]-1H-indole-5-carbonylphosphonic acid]", "DC50": "0.1 to 1"}, {"smiles": "Cc1ncsc1-c1ccc([C@H](C)NC(=O)[C@@H]2C[C@@H](O)CN2C(=O)[C@@H](NC(=O)CCCCCc2cccc(NC(=O)[C@H](CCC(N)=O)NC(=O)[C@@H]3Cc4cccc5c4N3C(=O)[C@@H](NC(=O)c3cc4cc(C(=O)P(=O)(O)O)ccc4[nH]3)CC5)c2)C(C)(C)C)cc1", "note": "[Compound I-209]", "DC50": "0.01 to 0.1"}, {"smiles": "Cc1ncsc1-c1ccc(CNC(=O)[C@@H]2C[C@@H](O)CN2C(=O)[C@@H](NC(=O)CCCCCc2cccc(O[C@H](C)[C@H](CCC(N)=O)NC(=O)[C@@H]3Cc4cccc5c4N3C(=O)[C@@H](NC(=O)c3cc4cc(C(=O)P(=O)(O)O)ccc4[nH]3)CC5)c2)C(C)(C)C)cc1", "note": "[Compound I-210, 2-[[(2S,11S)-2-[[(3S,4R)-1-carbamoyl-4-[3-(5-[[(2S)-1-[(2S,4R)-4-hydroxy-2-([[4-(4-methyl-1,3-thiazol-5-yl)phenyl]methyl]carbamoyl)pyrrolidin-1-yl]-3,3-dimethyl-1-oxobutan-2-yl]carbamoyl]pentyl)phenoxy]pentan-3-yl]carbamoyl]-12-oxo-1-azatricyclo[6.4.1.0^[4,13]]trideca-4(13),5,7-trien-11-yl]carbamoyl]-1H-indole-5-carbonylphosphonic acid]", "DC50": "> 1"}, {"smiles": "Cc1ncsc1-c1ccc([C@H](C)NC(=O)[C@@H]2C[C@@H](O)CN2C(=O)[C@@H](NC(=O)CCCCc2cccc(OC[C@H](CCC(N)=O)NC(=O)[C@@H]3Cc4cccc5c4N3C(=O)[C@@H](NC(=O)c3cc4cc(C(=O)P(=O)(O)O)ccc4[nH]3)CC5)c2)C(C)(C)C)cc1", "note": "[Compound I-211, diammonium 2-[[(2S,11S)-2-[[(2S)-4-carbamoyl-1-[3-(4-[[(2S)-1-[(2S,4R)-4-hydroxy-2-[[(1S)-1-[4-(4-methyl-1,3-thiazol-5-yl)phenyl]ethyl]carbamoyl]pyrrolidin-1-yl]-3,3-dimethyl-1-oxobutan-2-yl]carbamoyl]butyl)phenoxy]butan-2-yl]carbamoyl]-12-oxo-1-azatricyclo[6.4.1.0^[4,13]]trideca-4(13),5,7-trien-11-yl]carbamoyl]-1H-indole-5-carbonylphosphonate]", "DC50": "0.01 to 0.1"}, {"smiles": "Cc1ccc(OC[C@H](CCC(N)=O)NC(=O)[C@@H]2Cc3cccc4c3N2C(=O)[C@@H](NC(=O)c2cc3cc(C(=O)P(=O)(O)O)ccc3[nH]2)CC4)cc1CCCCCC(=O)N[C@H](C(=O)N1C[C@H](O)C[C@H]1C(=O)N[C@@H](C)c1ccc(-c2scnc2C)cc1)C(C)(C)C", "note": "[Compound I-212, 2-[[(2S,11S)-2-[[(2S)-4-carbamoyl-1-[3-(5-[[(2S)-1-[(2S,4R)-4-hydroxy-2-[[(1S)-1-[4-(4-methyl-1,3-thiazol-5-yl)phenyl]ethyl]carbamoyl]pyrrolidin-1-yl]-3,3-dimethyl-1-oxobutan-2-yl]carbamoyl]pentyl)-4-methylphenoxy]butan-2-yl]carbamoyl]-12-oxo-1-azatricyclo[6.4.1.0^[4,13]]trideca-4(13),5,7-trien-11-yl]carbamoyl]-1H-indole-5-carbonylphosphonic acid]", "DC50": "0.01 to 0.1"}]}]}
